# Test results taken from PMC10535219, “Discovery and Potential Utility of a Novel Non-Invasive Ocular Delivery Platform” (Pharmaceutics, 2023).
# Read-outs that look alike come from different tables or passages of the source.
# Legend:
# [1] = Biodisposition of JV-DE1 eye drops in New Zealand rabbits (LC-MS/MS of plasma and ocular tissues); assay type: in vivo; conditions: rabbit; for Cmax / concentration at 0.5 h / concentration at 3 h / concentration at 6 h / concentration at 24 h: New Zealand; for Cmax: topical or ocular
# Experimental: The in-life procedures and sample collections were performed at Joinn Laboratory Inc. (Suzhou, China). A single dose of 50 µL (120 µg) per eye of the 0.24% JV-DE1 eye drops was applied to both eyes of the animals at time 0 using a pipet. This dose was chosen based on the maximum amount deliverable as an eye drop. Blood samples were collected from all five study animals at 0 h pre-dosing. […] Plasma samples were collected before each euthanization.
# Sample preparation and bioanalysis were performed at Medicilon Preclinical Research LLC (Shanghai, China). Solid ocular tissues were homogenized with 9- to 49-fold (1 g tissue in 9 mL to 49 mL, w/v) of cold homogenization buffer (50% methanol/H2O). Aliquots of plasma or aqueous humor, as well as the homogenized tissue samples, were mixed with 8-fold volumes of 200 ng/mL warfarin in a methanol solution. After vortexing and centrifuging, an aliquot of supernatants was transferred to a 96-well plate for LC-MS/MS analysis. JV-DE1 is a synthesized new chemical entity (NCE). The absence of the endogenous compound was verified by JeniVision with a battery of pre-clinical GLP and non-GLP studies, including analytical studies in monkey, dog, and rabbit tissues.
# The liquid chromatography (LC) system comprised a Waters (Waters Corporation, Milford, CT, USA) Ultra Performance Liquid Chromatography (UPLC) equipped with an ACQUITY UPLC binary solvent manager, an ACQUITY UPLC sample manager, an ACQUTIY UPLC sample organizer, and an ACQUITY UPLC column heater HT. The mass spectrometric (MS) analysis was performed using a Triple Quad 6500+ (Applied Biosystems/MDS Sciex, Concord, ON, Canada) with an ESI ion source. The data acquisition and control system were created using Analyst 1.6.3 and 1.7.1 Software from Applied Biosystems/MDS Sciex. The LC/MS conditions for JV-DE1 are described in Supplementary Table S1a–c.
# [2] = target: human IP receptor; set-up: method as in PMID 16331286; conditions: cited from earlier work
# [3] = single eye drop 120 μg/eye OD, 0.5 h
# [4] = single eye drop 120 μg/eye OD, 3 h
# [5] = single eye drop 120 μg/eye OD, 6 h
# [6] = single eye drop 120 μg/eye OD, 24 h
compound,measurement,setting,value
"CC(C)Oc1ccc(Cc2ccc(NC3=NCCN3)cc2)cc1 [JV-DE1, 4,5-dihydro-N-[4-[[4-(1-methylethoxy)phenyl]methyl]phenyl]-1H-imadazol-2-amine]",Cmax,"[1]; anterior sclera, 120 ug, eye drop 120 µg/eye, read-out: Cmax in anterior sclera",1790 ng/g
same,concentration at 0.5 h,"[1]; anterior sclera, topical, 120 µg/eye, single eye drop 120 μg/eye OD, 0.5 h, read-out: Drug in OD Tissues, Anterior sclera",1790 ng/g
same,concentration at 3 h,"[1]; anterior sclera, topical, 120 µg/eye, single eye drop 120 μg/eye OD, 3 h, read-out: Drug in OD Tissues, Anterior sclera",926 ng/g
same,concentration at 6 h,"[1]; anterior sclera, topical, 120 µg/eye, single eye drop 120 μg/eye OD, 6 h, read-out: Drug in OD Tissues, Anterior sclera",1480 ng/g
same,concentration at 24 h,"[1]; anterior sclera, topical, 120 µg/eye, single eye drop 120 μg/eye OD, 24 h, read-out: Drug in OD Tissues, Anterior sclera",93.2 ng/g
same,Cmax,"[1]; bulbar conjunctiva, 120 ug, eye drop 120 µg/eye, read-out: Cmax in bulbar conjunctiva",~16000 ng/g
same,Cmax,"[1]; ciliary body/iris, 120 ug, eye drop 120 µg/eye, read-out: Cmax in ciliary body/iris",305 ng/g
same,concentration at 0.5 h,"[1]; ciliary body/iris, topical, 120 µg/eye, single eye drop 120 μg/eye OD, 0.5 h, read-out: Drug in OD Tissues, Ciliary body/iris",105 ng/g
same,concentration at 3 h,"[1]; ciliary body/iris, topical, 120 µg/eye, single eye drop 120 μg/eye OD, 3 h, read-out: Drug in OD Tissues, Ciliary body/iris",305 ng/g
same,concentration at 6 h,"[1]; ciliary body/iris, topical, 120 µg/eye, single eye drop 120 μg/eye OD, 6 h, read-out: Drug in OD Tissues, Ciliary body/iris",231 ng/g
same,concentration at 24 h,"[1]; ciliary body/iris, topical, 120 µg/eye, single eye drop 120 μg/eye OD, 24 h, read-out: Drug in OD Tissues, Ciliary body/iris",28.9 ng/g
same,concentration at 0.5 h,"[1]; conjunctiva, other: eye drop applied to the eye, single eye drop 120 μg/eye OD, 0.5 h, read-out: Drug in OD Tissues, Conjunctiva",16500 ng/g
same,concentration at 3 h,"[1]; conjunctiva, other: eye drop applied to the eye, single eye drop 120 μg/eye OD, 3 h, read-out: Drug in OD Tissues, Conjunctiva",5180 ng/g
same,concentration at 6 h,"[1]; conjunctiva, other: eye drop applied to the eye, single eye drop 120 μg/eye OD, 6 h, read-out: Drug in OD Tissues, Conjunctiva",566 ng/g
same,concentration at 24 h,"[1]; conjunctiva, other: eye drop applied to the eye, single eye drop 120 μg/eye OD, 24 h, read-out: Drug in OD Tissues, Conjunctiva",994 ng/g
same,Cmax,"[1]; cornea, 120 ug, eye drop 120 µg/eye, read-out: Cmax in cornea",~12000 ng/g
same,concentration at 0.5 h,"[1]; cornea, topical, 120 µg/eye, single eye drop 120 μg/eye OD, 0.5 h, read-out: Drug in OD Tissues, Cornea",12100 ng/g
same,concentration at 3 h,"[1]; cornea, topical, 120 µg/eye, single eye drop 120 μg/eye OD, 3 h, read-out: Drug in OD Tissues, Cornea",5950 ng/g
same,concentration at 6 h,"[1]; cornea, topical, 120 µg/eye, single eye drop 120 μg/eye OD, 6 h, read-out: Drug in OD Tissues, Cornea",5130 ng/g
same,concentration at 24 h,"[1]; cornea, topical, 120 µg/eye, single eye drop 120 μg/eye OD, 24 h, read-out: Drug in OD Tissues, Cornea",542 ng/g
same,concentration at 0.5 h,"[1]; plasma, other: eye drop applied to the eye, single eye drop 120 μg/eye OD, 0.5 h, read-out: Drug in plasma",1 ng/mL
same,concentration at 3 h,"[1]; plasma, other: eye drop applied to the eye, single eye drop 120 μg/eye OD, 3 h, read-out: Drug in plasma",0.3 ng/mL
same,concentration at 6 h,"[1]; plasma, other: eye drop applied to the eye, single eye drop 120 μg/eye OD, 6 h, read-out: Drug in plasma",0.1 ng/mL
same,Cmax,"[1]; posterior sclera, 120 ug, eye drop 120 µg/eye, read-out: Cmax in posterior sclera",240 ng/g
same,concentration at 0.5 h,"[1]; posterior sclera, topical, 120 µg/eye, single eye drop 120 μg/eye OD, 0.5 h, read-out: Drug in OD Tissues, Posterior sclera",209 ng/g
same,concentration at 3 h,"[1]; posterior sclera, topical, 120 µg/eye, single eye drop 120 μg/eye OD, 3 h, read-out: Drug in OD Tissues, Posterior sclera",240 ng/g
same,concentration at 6 h,"[1]; posterior sclera, topical, 120 µg/eye, single eye drop 120 μg/eye OD, 6 h, read-out: Drug in OD Tissues, Posterior sclera",151 ng/g
same,concentration at 24 h,"[1]; posterior sclera, topical, 120 µg/eye, single eye drop 120 μg/eye OD, 24 h, read-out: Drug in OD Tissues, Posterior sclera",64.5 ng/g
same,Cmax,"[1]; retina, 120 µg per eye, eye drop administration, read-out: retinal Cmax",297 nM
same,Cmax,"[1]; retina, 120 ug, eye drop 120 µg/eye, read-out: Cmax in retina",92 ng/g
same,concentration at 0.5 h,"[1]; retina, topical, 120 µg/eye, single eye drop 120 μg/eye OD, 0.5 h, read-out: Drug in OD Tissues, Retina",92 ng/g
same,concentration at 3 h,"[1]; retina, topical, 120 µg/eye, single eye drop 120 μg/eye OD, 3 h, read-out: Drug in OD Tissues, Retina",49.1 ng/g
same,concentration at 6 h,"[1]; retina, topical, 120 µg/eye, single eye drop 120 μg/eye OD, 6 h, read-out: Drug in OD Tissues, Retina",58.9 ng/g
same,concentration at 24 h,"[1]; retina, topical, 120 µg/eye, single eye drop 120 μg/eye OD, 24 h, read-out: Drug in OD Tissues, Retina",6.8 ng/g
same,Cmax,"[1]; vitreous humor, 120 ug, eye drop 120 µg/eye, read-out: Cmax in vitreous humor",2.6 ng/mL
same,concentration at 0.5 h,"[1]; vitreous humor, topical, 120 µg/eye, single eye drop 120 μg/eye OD, 0.5 h, read-out: Drug in vitreous humor",2.6 ng/mL
same,concentration at 3 h,"[1]; vitreous humor, topical, 120 µg/eye, single eye drop 120 μg/eye OD, 3 h, read-out: Drug in vitreous humor",1.7 ng/mL
same,concentration at 6 h,"[1]; vitreous humor, topical, 120 µg/eye, single eye drop 120 μg/eye OD, 6 h, read-out: Drug in vitreous humor",1.2 ng/mL
same,concentration at 24 h,"[1]; vitreous humor, topical, 120 µg/eye, single eye drop 120 μg/eye OD, 24 h, read-out: Drug in vitreous humor",0.4 ng/mL
same,"maximum ocular delivery efficiency (% administered dose), anterior sclera",[1]; eye drop 120 µg/eye,0.2982%
same,"maximum ocular delivery efficiency (% administered dose), ciliary body/iris",[1]; eye drop 120 µg/eye,0.0174%
same,"maximum ocular delivery efficiency (% administered dose), conjunctiva",[1]; eye drop 120 µg/eye,1.3929%
same,"maximum ocular delivery efficiency (% administered dose), cornea",[1]; eye drop 120 µg/eye,0.8622%
same,"maximum ocular delivery efficiency (% administered dose), retina",[1]; eye drop 120 µg/eye,0.0047%
same,"maximum ocular delivery efficiency (% administered dose), vitreous humor",[1]; eye drop 120 µg/eye,0.0023%
same,drug concentration in the plasma,"[1]; eye drop 120 µg/eye, throughout 0.5, 3 and 6 h post-dose",no more than 0.001 µg/mL
same,"% Administered Dose, Anterior sclera",[1]; [3],0.2982%
same,"% Administered Dose, Ciliary body/iris",[1]; [3],0.0084%
same,"% Administered Dose, Conjunctiva",[1]; [3],1.3929%
same,"% Administered Dose, Cornea",[1]; [3],0.8622%
same,"% Administered Dose, Posterior sclera",[1]; [3],0.0153%
same,"% Administered Dose, Retina",[1]; [3],0.0047%
same,"% Administered Dose, Vitreous humor",[1]; [3],0.0023%
same,"% Administered Dose, Anterior sclera",[1]; [4],0.1068%
same,"% Administered Dose, Ciliary body/iris",[1]; [4],0.0174%
same,"% Administered Dose, Conjunctiva",[1]; [4],0.4477%
same,"% Administered Dose, Cornea",[1]; [4],0.4239%
same,"% Administered Dose, Posterior sclera",[1]; [4],0.0323%
same,"% Administered Dose, Retina",[1]; [4],0.0036%
same,"% Administered Dose, Vitreous humor",[1]; [4],0.0012%
same,"% Administered Dose, Anterior sclera",[1]; [5],0.2139%
same,"% Administered Dose, Ciliary body/iris",[1]; [5],0.0137%
same,"% Administered Dose, Conjunctiva",[1]; [5],0.1288%
same,"% Administered Dose, Cornea",[1]; [5],0.3709%
same,"% Administered Dose, Posterior sclera",[1]; [5],0.0197%
same,"% Administered Dose, Retina",[1]; [5],0.0037%
same,"% Administered Dose, Vitreous humor",[1]; [5],0.0007%
same,"% Administered Dose, Anterior sclera",[1]; [6],0.0127%
same,"% Administered Dose, Ciliary body/iris",[1]; [6],0.0021%
same,"% Administered Dose, Conjunctiva",[1]; [6],0.1467%
same,"% Administered Dose, Cornea",[1]; [6],0.0254%
same,"% Administered Dose, Posterior sclera",[1]; [6],0.0088%
same,"% Administered Dose, Retina",[1]; [6],0.0004%
same,"% Administered Dose, Vitreous humor",[1]; [6],0.0004%
same,Drug in plasma,"[1]; single eye drop 120 μg/eye OD, 24 h, LLOQ 0.0001 µg/mL",BLQ
same,Ki,[2],0.5 nM
same,pKi,[2],9.3
